Experimental data from paper PMC9078399, “Discovery of N-cyclobutylaminoethoxyisoxazole derivatives as novel sigma-1 receptor ligands with neurite outgrowth efficacy in cells” (RSC Advances, 2018).

What was measured:
[1] = molecular target: NET: norepinephrine transporter (Homo sapiens, UniProt P23975); parameters: method as in PMID 27309376; settings: [3H] nisoxetine; literature values; cited from earlier work
PC12 cells = test: NGF-induced neurite outgrowth in PC-12 cells; format: cell-based, rat; settings: 10 μM compound with NGF 2.5 ng mL−1, four days
Experimental: PC-12 cells, from rat pheochromocytoma cell lines, were obtained from the American Type Culture Collection (ATCC, Manassas, VA, USA). Undifferentiated PC12 cells were cultured in DMEM complete medium with 10% heat-inactivated horse serum, 5% fetal bovine serum, 100 U mL^−1 penicillin, and 100 μg mL^−1 streptomycin and maintained at 37 °C in a humidified incubator supplemented with 5% CO2. To induce differentiation, PC12 cells were seeded at a density of 1 × 10^4 cells per mL on a poly-L-lysine-coated 96-well plate and cultured in complete medium containing 2.5 ng mL^−1 NGF or different tested compounds (10 μM) concomitant with 2.5 ng mL^−1 NGF administration. Four days after incubation, morphometric analysis was performed on digitized images of live cells taken under phase contrast illumination with an inverted microscope linked to a camera. Images of five fields per well were taken with an average of 20 cells per field. The number of differentiated cells was determined by counting cells that had at least one neurite with a length equal to the cell body diameter and was expressed as a percentage of the total cells in the field. The counting was performed in a blinded manner. All experiments were performed at least five times.

σ1 receptor [2] = molecular target: T1, σ1 receptor (Cavia porcellus, UniProt Q60492); parameters: method as in PMID 27309376; settings: [3H]-(+)-pentazocine; Guinea pig homogenate; compound 7 value from the literature; cited from earlier work
T1 construct: σ1 receptor, [^3H]-(+)-pentazocine, Guinea pig brain homogenate; from tissue; host or cells: Guinea pig brain homogenate
T1 sequence (Q60492 whole entry): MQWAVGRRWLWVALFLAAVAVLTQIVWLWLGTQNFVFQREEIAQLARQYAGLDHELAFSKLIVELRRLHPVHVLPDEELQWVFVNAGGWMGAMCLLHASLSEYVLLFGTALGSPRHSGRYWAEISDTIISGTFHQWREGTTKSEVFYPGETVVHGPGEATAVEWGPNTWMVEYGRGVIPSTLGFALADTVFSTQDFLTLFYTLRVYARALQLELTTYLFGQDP

[3] = molecular target: SERT: serotonin transporter (Homo sapiens, UniProt P31645); parameters: method as in PMID 27309376; settings: [3H] citalopram; literature values; cited from earlier work
Sequence of SERT: serotonin transporter (P31645 whole entry): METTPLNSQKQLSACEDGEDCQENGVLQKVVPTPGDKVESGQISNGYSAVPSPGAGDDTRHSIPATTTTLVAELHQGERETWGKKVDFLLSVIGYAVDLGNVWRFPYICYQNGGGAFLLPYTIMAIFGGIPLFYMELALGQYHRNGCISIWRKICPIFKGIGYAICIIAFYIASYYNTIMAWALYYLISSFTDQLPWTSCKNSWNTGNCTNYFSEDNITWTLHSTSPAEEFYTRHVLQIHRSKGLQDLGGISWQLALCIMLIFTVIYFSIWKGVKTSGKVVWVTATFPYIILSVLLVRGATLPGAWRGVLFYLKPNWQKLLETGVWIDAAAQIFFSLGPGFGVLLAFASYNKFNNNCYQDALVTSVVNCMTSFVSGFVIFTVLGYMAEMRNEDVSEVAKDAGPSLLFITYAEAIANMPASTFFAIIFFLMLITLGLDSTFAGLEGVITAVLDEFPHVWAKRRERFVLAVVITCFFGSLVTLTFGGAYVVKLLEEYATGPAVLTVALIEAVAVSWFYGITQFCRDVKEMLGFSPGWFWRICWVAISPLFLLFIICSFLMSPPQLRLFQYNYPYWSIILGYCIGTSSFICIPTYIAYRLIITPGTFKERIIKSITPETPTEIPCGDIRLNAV

[4] = molecular target: DAT: dopamine transporter (Homo sapiens, UniProt Q01959); parameters: method as in PMID 27309376; settings: [3H] WIN35428; literature values; cited from earlier work
Sequence of DAT: dopamine transporter (Q01959 whole entry): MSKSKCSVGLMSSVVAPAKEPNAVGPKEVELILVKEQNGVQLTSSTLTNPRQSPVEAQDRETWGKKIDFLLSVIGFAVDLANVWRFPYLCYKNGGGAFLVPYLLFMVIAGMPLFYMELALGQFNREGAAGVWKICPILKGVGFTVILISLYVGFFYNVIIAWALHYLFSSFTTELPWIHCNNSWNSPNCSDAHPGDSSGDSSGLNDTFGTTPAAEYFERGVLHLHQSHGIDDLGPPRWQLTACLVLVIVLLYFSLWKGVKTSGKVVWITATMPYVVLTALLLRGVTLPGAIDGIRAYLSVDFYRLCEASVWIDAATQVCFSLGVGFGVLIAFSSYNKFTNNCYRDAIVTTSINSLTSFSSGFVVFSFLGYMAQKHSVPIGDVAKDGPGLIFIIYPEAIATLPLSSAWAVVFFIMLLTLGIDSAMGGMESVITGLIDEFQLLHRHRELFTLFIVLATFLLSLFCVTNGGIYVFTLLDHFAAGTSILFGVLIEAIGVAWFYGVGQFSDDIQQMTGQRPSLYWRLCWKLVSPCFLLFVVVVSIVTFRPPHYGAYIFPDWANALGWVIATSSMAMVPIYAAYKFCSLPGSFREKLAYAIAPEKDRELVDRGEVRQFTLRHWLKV

σ1 receptor [5] = molecular target: T1, σ1 receptor; test: Radioligand binding at σ1 receptor ([3H]-(+)-pentazocine, NIMH PDSP); parameters: species or system Guinea pig; settings: ratio of Ki σ2 to Ki σ1
Excerpt: In this study, [^3H] pentazocine and [^3H]DTG (6) were used as the radioligands at σ1 and σ2 receptors. Firstly, we examined the effects of changing the substituents on the benzene ring. […] Mono-halogen substitution on the benzene ring exemplified by compounds 17–20 generally retained affinity for σ1 receptor compared with compound 7. […] The derivatives 21–25 also maintained similar high affinities for the σ1 receptor upon incorporation of two halogen atoms on the benzene ring. However, this is also accompanied with higher binding affinity to the σ2 receptor. […]. Next, we examined the effects of removing the methyl group on the basic nitrogen atom. […] […]. […] The results for the secondary amines 28 and 29 indicate that the hydrogen bond donor on basic nitrogen atom was beneficial for increased binding affinity to the σ1 receptor.
Radioligand competition studies were carried out by the National Institute of Mental Health's Psychoactive Drug Screening Program, Contract #HHSN-271-2008-00025-C (NIMH PDSP). The general procedures are listed as follows:
All the test compounds solution (1 mg mL^−1) were prepared by dissolving in DMSO or buffer solvent (50 mM Tris–HCl, pH = 8.0). The filter-mats were presoaked in 0.5% aqueous polyethyleneimine solution for 2 h at rt before use. All binding experiments were carried out in poly-L-lysine-coated 96-well plate and the final test concentration (50 μM, 5 μM, 1.5 μM, 500 nM, 150 nM, 50 nM, 15 nM, 5 nM, 1.5 nM, 0.5 nM, 0.05 nM) were prepared by addition of Tris–HCl solution (50 mM, pH = 8.0). The following specific radioligands and tissue source were used: (a) σ1 receptor, [^3H]-(+)-pentazocine, Guinea pig brain homogenate; (b) σ2 receptor, [^3H]-DTG, PC-12 cells. 100 μL of corresponding radioligand solution, 100 μL test compound solution and 50 μL of the respective receptor preparation into each well of the plate (total volume 250 μL). During the incubation, the plates were shaken at a speed of 500–600 rpm at the specified temperature (σ1 receptor, 37 °C, 150 min; σ2 receptor, rt, 120 min). The incubation was followed by a rapid vacuum filtration through Whatman GF/B glass filters, and the filtrates were washed twice with 10 mL of cold buffer and transferred to the 6 mL scintillation vials. EcoScint scintillation fluid (4.0 mL) was added, and the radioactivity bound was measured using a Beckman LS 6500 liquid scintillation counter. All experiments were performed at least three times.
For experimental details please refer to the PDSP website http://pdsp.med.unc.edu/.[28]

σ1 receptor [6] = molecular target: σ1 receptor; parameters: method as in PMID 21278085, PMID 15170821, PMID 18647636, PMID 22935988, PMID 21967807; settings: representative σ1 receptor ligands, Fig. 1; cited from earlier work
σ2 receptor = molecular target: σ2 receptor; parameters: method as in PMID 21278085, PMID 15170821, PMID 18647636, PMID 22935988, PMID 21967807; settings: representative σ1 receptor ligands, Fig. 1; cited from earlier work

Sequence of NET: norepinephrine transporter (P23975 whole entry): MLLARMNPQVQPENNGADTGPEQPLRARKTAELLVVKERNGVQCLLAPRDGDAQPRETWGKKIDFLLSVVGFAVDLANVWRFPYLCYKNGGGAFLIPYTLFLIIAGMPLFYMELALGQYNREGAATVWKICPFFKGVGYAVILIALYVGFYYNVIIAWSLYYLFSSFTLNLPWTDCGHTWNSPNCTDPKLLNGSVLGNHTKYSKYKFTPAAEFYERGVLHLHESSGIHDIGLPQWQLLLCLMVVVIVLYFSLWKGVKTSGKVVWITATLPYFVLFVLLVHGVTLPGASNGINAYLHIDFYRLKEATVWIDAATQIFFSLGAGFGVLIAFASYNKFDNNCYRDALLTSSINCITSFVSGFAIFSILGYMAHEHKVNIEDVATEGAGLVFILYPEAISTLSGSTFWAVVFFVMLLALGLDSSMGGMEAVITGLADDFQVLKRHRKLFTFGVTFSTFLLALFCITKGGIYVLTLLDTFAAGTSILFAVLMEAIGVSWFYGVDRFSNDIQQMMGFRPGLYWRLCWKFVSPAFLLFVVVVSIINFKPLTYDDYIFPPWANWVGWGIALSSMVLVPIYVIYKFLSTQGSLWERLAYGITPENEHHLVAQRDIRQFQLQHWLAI

Structure (SMILES)	Ki, NET [1]	Effect on NGF-induced neurite outgrowth (PC12 cells)	Ki (σ1 receptor [2])	Ki, SERT [3]	Ki, DAT [4]	Selectivity (Ki σ2/Ki σ1) (σ1 receptor [5])	Ki (σ1 receptor [6])	Ki (σ2 receptor)
CN(CCOc1cc(COc2ccccc2)on1)C1CCC1 [Compound 7]	NA (NA: not active, defined as <50% binding in the primary assay at 10 μM)	synergistic neurite outgrowth effects at a level similar to that of the positive control RC-33	0.0018 ± 0.0002 µM	NA (NA: not active, defined as <50% binding in the primary assay at 10 μM)	NA ^c (NA: not active, defined as <50% binding in the primary assay at 10 μM)	171		
CC(CCN1CCCCC1)c1ccc(-c2ccccc2)cc1 (stereo not shown) [RC-33]							0.0007 µM	0.103 µM
COc1ccc(CCN2CCN(CCCc3ccccc3)CC2)cc1OC [SA4503]							0.017 µM	1.8 µM
